Test results reported in ChEMBL document CHEMBL1201862, “PubChem BioAssay data set” (2004).
Activity calls are given as the source filed them.

What was measured:
BJ [1] = assay: cytotoxicity toward BJ-TERT fibroblasts, dose response, cell-based, RAS-independent, luminescence (AID 1933); assay type: functional; details: Homo sapiens
[2] = A Cell Based Secondary Assay To Explore Cytotoxicity of Compounds that Sensitize Mycobacterium Tuberculosis to Beta-Lactam Antibiotics.; assay type: functional
BJ [3] = assay: cells; assay type: functional, cell-based; details: Homo sapiens
BJ [4] = assay: cytotoxicity toward BJ-TERT-LT-ST fibroblasts, dose response, cell-based, RAS-independent, luminescence (AID 1935); assay type: functional; details: Homo sapiens;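 note: BJ fibroblasts immortalized with TERT plus LT and ST oncogenes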
[5] = cytotoxicity toward DRD oncogenic fibroblasts, dose response, cell-based, non-viral oncogenic, luminescence (AID 1934); assay type: functional; details: Homo sapiens
[6] = molecular target: T1, Microphthalmia-associated transcription factor (Homo sapiens, UniProt O75030); assay: TRPM1 promoter luciferase signal decrease, dose response, MITF inhibitor project, cell-based, SK-MEL-5, cherry-picked, set 3 (AID 493073); assay type: functional
T1 sequence (O75030 whole entry): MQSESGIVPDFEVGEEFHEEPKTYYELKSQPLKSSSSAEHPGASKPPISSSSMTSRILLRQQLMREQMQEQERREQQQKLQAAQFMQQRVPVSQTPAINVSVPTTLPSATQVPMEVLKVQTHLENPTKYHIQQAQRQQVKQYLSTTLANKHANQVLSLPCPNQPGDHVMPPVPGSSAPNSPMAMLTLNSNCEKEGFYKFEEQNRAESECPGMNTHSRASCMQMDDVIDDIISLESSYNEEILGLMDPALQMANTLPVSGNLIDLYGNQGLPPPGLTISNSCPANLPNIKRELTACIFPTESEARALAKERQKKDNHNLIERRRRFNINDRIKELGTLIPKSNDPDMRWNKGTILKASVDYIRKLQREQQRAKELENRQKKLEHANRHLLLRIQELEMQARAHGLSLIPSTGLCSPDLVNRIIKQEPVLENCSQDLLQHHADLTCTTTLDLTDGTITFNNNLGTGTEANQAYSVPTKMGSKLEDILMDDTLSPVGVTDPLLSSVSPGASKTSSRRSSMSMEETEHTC

A-375 = assay: A375 melanoma cell viability reduction, dose response, counter-screen for MITF modulator project, cherry-pick samples, set 2 (AID 540335); assay type: functional, cell-based; details: Homo sapiens
[7] = molecular target: Voltage-gated inwardly rectifying potassium channel KCNH2 (Homo sapiens, UniProt Q12809); details: Potency;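 note: confirmatory quantitative high-throughput screen measuring inhibition of hERG channel activity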
Voltage-gated inwardly rectifying potassium channel KCNH2, sequence (Q12809 whole entry): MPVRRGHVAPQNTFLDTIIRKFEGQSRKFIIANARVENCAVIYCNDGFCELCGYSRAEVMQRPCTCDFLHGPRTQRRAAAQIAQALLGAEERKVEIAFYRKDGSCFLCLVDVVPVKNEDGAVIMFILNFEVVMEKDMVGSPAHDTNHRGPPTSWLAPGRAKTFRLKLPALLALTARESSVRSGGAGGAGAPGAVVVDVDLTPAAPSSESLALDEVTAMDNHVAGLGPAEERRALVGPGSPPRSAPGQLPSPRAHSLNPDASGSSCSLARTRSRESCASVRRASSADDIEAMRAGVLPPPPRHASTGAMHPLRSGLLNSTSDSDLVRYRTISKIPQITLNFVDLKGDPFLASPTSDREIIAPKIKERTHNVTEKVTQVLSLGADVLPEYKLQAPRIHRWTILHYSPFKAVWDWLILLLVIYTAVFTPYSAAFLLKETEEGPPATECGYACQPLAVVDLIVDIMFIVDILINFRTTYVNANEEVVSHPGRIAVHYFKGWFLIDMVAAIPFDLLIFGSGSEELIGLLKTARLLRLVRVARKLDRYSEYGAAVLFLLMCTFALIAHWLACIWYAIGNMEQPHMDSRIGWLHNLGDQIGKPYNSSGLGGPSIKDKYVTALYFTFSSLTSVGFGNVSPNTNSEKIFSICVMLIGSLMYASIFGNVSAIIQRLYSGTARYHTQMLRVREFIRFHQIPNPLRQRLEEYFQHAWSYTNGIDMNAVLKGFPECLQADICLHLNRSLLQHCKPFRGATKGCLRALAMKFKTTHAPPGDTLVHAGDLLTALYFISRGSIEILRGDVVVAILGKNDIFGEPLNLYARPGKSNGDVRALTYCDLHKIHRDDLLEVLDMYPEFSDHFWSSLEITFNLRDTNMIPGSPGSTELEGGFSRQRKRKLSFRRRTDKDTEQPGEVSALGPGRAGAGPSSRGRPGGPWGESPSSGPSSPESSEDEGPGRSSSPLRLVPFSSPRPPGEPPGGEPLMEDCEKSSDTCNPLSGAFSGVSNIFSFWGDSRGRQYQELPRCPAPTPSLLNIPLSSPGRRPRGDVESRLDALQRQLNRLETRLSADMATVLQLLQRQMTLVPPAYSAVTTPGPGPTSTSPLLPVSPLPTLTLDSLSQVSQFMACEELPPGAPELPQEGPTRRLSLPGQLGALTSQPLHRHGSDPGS

[8] = molecular target: Heat shock protein HSP 90-alpha (Homo sapiens, UniProt P07900); assay type: functional, organism-based
Vero [9] = assay: cells; assay type: functional, cell-based; details: Chlorocebus sabaeus
Vero [10] = assay: cells; assay type: functional; details: Chlorocebus sabaeus
[11] = molecular target: Glucose-6-phosphate 1-dehydrogenase (Homo sapiens, UniProt P11413); assay: human G6PD enzyme inhibitors, dose response, selectivity assay for P. falciparum G6PD inhibitor project, biochemical, fluorescence (AID 504792); assay type: functional
Glucose-6-phosphate 1-dehydrogenase, sequence (P11413 whole entry): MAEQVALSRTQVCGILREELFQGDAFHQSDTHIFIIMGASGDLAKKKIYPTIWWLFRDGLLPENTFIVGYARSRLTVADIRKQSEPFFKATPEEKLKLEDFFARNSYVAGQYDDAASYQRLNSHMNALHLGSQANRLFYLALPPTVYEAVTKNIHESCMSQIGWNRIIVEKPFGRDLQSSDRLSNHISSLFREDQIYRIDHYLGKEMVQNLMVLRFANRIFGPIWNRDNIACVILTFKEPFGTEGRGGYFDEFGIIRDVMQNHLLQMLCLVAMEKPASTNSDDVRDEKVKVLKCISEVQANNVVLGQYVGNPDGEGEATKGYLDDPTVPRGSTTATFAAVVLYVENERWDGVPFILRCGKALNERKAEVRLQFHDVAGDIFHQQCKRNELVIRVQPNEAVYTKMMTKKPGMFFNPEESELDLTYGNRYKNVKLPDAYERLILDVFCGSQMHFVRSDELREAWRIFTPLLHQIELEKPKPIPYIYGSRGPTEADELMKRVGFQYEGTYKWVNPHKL

DNA topoisomerase = DNA topoisomerase (Yersinia pestis, UniProt A0A2S9PM60); assay: Y. pestis Topo-I inhibitors, cleavage product readout, dose response, biochemical, cherry-pick (AID 588525)
DNA topoisomerase, sequence (A0A2S9PM60 whole entry): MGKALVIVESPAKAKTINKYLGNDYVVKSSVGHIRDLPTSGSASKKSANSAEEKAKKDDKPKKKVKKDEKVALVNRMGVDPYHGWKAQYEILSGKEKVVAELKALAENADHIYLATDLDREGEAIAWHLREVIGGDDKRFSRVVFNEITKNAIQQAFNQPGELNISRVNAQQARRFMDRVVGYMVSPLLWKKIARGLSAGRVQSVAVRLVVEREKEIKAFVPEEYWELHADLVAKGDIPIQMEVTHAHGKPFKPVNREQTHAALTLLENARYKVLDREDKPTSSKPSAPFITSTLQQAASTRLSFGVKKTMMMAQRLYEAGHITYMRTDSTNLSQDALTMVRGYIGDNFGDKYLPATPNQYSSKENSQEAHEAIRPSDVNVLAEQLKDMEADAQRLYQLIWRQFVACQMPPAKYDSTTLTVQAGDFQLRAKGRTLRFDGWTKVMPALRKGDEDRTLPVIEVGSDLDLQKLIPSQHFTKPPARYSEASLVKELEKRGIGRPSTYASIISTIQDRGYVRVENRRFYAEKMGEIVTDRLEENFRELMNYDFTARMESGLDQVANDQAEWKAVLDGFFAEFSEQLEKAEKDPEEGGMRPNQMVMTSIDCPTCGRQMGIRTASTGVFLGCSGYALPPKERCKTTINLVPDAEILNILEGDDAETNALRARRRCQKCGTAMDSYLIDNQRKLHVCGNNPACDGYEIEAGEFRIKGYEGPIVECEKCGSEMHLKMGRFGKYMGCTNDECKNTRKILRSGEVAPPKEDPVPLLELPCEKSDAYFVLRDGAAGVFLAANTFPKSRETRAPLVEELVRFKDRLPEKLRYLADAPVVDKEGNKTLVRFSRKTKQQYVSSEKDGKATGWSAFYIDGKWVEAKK

HEK293 [12] = assay: cytotoxicity in HEK293T NF-kB-Luc cells, SAR follow-up, cytotoxicity control for NF-kB activator project, cell-based, resazurin fluorescence (AID 493251); assay type: functional; details: Homo sapiens
Jurkat = assay: SAR Analysis of small molecule inhibitors of T-cell specific antigen receptor-induced NF-kB activation in a Jurkat cell line using a luminescence assay - Set 2. [Related pubchem assays (depositor defined):AID435003, AID435012, AID465]; assay type: functional, cell-based; details: Homo sapiens
HEK293 [13] = assay: SAR Analysis of small molecule inhibitors of T-cell specific antigen receptor-induced NF-kB activation in a HEK-293T cell line using a luminescence assay - Set 2. [Related pubchem assays (depositor defined):AID435003, AID435012, AID489026]; assay type: functional, cell-based; details: Homo sapiens

Compound: COc1ccc2[nH]cc(C(=O)CCl)c2c1
- EC50 (BJ [1]): 4.61 µM (active)
- CC50 [2]: 5.65 µM (active)
- EC50 (BJ [3]): 7.02 µM (active)
- EC50 (BJ [4]): 7.84 µM (inconclusive)
- EC50 [5]: 8.64 µM (active)
- AC50 [6]: 5.65 µM (active)
- AC50 (A-375): 45.9 µM (active)

Compound: N=C1C=CC(=C(c2ccc(N)cc2)c2ccc(N)cc2)C=C1
- AC50 [7]: 44.7 µM (inconclusive)

Compound: O=[N+]([O-])c1ccc(NC(c2ccccc2)c2ccc3cccnc3c2O)cc1 (centres undefined)
- AC50 [8]: 3.92 µM (active)
- IC50 (Vero [9]): > 25 µM (active)
- CC50 (Vero [10]): 4.02 µM (active)

Compound: CN(C)c1ccc2nc3ccc(=O)cc-3sc2c1
- IC50 [11]: > 80 µM (inactive)
- AC50 (DNA topoisomerase): 4.67 µM (active)

Compound: CCCOc1ccc(C(=O)Nc2ccc(S(=O)(=O)N3C[C@@H]4C[C@@H](C3)c3cccc(=O)n3C4)cc2)cc1
- AC50 (DNA topoisomerase): 3.3 µM (active)

Compound: CN1CCN(c2ccccc2NC(=O)c2ccc([N+](=O)[O-])o2)CC1
- AC50 [6]: 4.95 µM (active)
- IC50 (HEK293 [12]): 23.6 µM (inactive)
- IC50 (Jurkat): 24.8 µM (inactive)
- IC50 (HEK293 [13]): 15.6 µM (active)

Compound: Clc1ccc(C(c2ccccc2Cl)C(Cl)(Cl)Cl)cc1 (centres undefined)
- AC50 [7]: 8.91 µM (inconclusive)
